Assay results as given in ChEMBL document CHEMBL5104094, “Chemistry, biosynthesis and biological activity of terpenoids and meroterpenoids in bacteria and fungi isolated from different marine habitats” (Eur J Med Chem, 2021).

Columns and labels:
L1210 = test: Antiproliferative activity against mouse L1210 cells assessed as inhibition of cell proliferation incubated for 48 hrs by Coulter counter method; format: functional, cell-based; details: L1210, 48 h
[1] = Antiproliferative activity against human IMC cells assessed as inhibition of cell proliferation incubated for 48 hrs by Coulter counter method; format: functional, cell-based
Candida albicans = test: Antifungal activity against Candida albicans assessed as fungal growth inhibition by microbroth dilution method; format: functional
HCT-116 = test: Cytotoxicity against human HCT-116 cells assessed as cell growth inhibition by MTT assay; format: functional, cell-based
SW-620 = test: Antitumor activity against human SW620 cells xenografted in BALB/c nude mouse assessed as tumor growth inhibition at 10 mg/kg/day, ip for 28 days relative to control; format: functional; details: SW-620, 672 h, time 28 day, read-out: TGI
HL-60 = test: Cytotoxicity against human HL-60 cells assessed as cell growth inhibition; format: functional, cell-based
Bel-7402 = test: Cytotoxicity against human Bel-7402 cells assessed as cell growth inhibition; format: functional, cell-based
[2] = target: Phosphotyrosine-protein phosphatase PTPB (Mycobacterium tuberculosis, UniProt P96830); test: Inhibition of N-terminal His6-tagged full-length Mycobacterium tuberculosis H37Rv PTPB expressed in Escherichia coli BL21 (DH3) using fluorogenic phosphatase substrate by fluorescence based assay
Chain of Phosphotyrosine-protein phosphatase PTPB (P96830 whole entry): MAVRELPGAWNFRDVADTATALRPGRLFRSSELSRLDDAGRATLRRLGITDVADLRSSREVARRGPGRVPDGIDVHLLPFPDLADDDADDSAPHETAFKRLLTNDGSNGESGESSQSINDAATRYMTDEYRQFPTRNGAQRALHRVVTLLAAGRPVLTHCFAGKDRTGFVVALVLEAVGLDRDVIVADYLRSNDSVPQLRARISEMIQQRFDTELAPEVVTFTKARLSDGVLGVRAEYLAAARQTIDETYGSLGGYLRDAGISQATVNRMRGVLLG

HCC1395 = test: Cytotoxicity against human HCC1395 cells assessed as cell growth inhibition incubated for 96 hrs by Cell Titer Glo assay; format: functional, cell-based; details: HCC1395, 96 h
NSCLC = test: Cytotoxicity against human NSCLC cells assessed as cell growth inhibition incubated for 96 hrs by Cell Titer Glo assay; format: functional, cell-based
NCI-H1395 = test: Cytotoxicity against human NCI-H1395 cells assessed as cell growth inhibition incubated for 96 hrs by Cell Titer Glo assay; format: functional, cell-based; details: NCI-H1395, 96 h
MCF7 = test: Cytotoxicity against human MCF7 cells assessed as cell growth inhibition incubated for 72 hrs by SRB assay; format: functional, cell-based; details: MCF7, 72 h
SF-268 = test: Cytotoxicity against human SF-268 cells assessed as cell growth inhibition incubated for 72 hrs by SRB assay; format: functional, cell-based; details: SF-268, 72 h
HepG2 = test: Cytotoxicity against human HepG2 cells assessed as cell growth inhibition incubated for 72 hrs by SRB assay; format: functional, cell-based; details: HepG2, 72 h
A549 = test: Cytotoxicity against human A549 cells assessed as cell growth inhibition incubated for 72 hrs by SRB assay; format: functional, cell-based; details: A549, 72 h
[3] = Suppression of spontaneous calcium oscillation amplitude in C57Bl/6J mouse primary neocortical neuron incubated for 15 mins by Fluo-4 dye based assay; format: functional, cell-based; details: 0.25 h
[4] = Suppression of spontaneous calcium oscillation frequency in C57Bl/6J mouse primary neocortical neuron incubated for 15 mins by Fluo-4 dye based assay; format: functional, cell-based; details: 0.25 h
[5] = Suppression of spontaneous calcium oscillation amplitude in 4-AP-induced C57Bl/6J mouse primary neocortical neuron incubated for 25 mins by Fluo-4 dye based assay; format: functional, cell-based
[6] = Suppression of spontaneous calcium oscillation frequency in 4-AP-induced C57Bl/6J mouse primary neocortical neuron incubated for 25 mins by Fluo-4 dye based assay; format: functional, cell-based
[7] = target: Tyrosine-protein phosphatase non-receptor type 2 (Homo sapiens, UniProt P17706); test: Inhibition of recombinant human TCPTP expressed in Escherichia coli using p-nitrophenyl phosphate as substrate preincubated for 15 mins followed by substrate addition measured after 60 mins by absorbance based assay
Chain of Tyrosine-protein phosphatase non-receptor type 2 (P17706 whole entry): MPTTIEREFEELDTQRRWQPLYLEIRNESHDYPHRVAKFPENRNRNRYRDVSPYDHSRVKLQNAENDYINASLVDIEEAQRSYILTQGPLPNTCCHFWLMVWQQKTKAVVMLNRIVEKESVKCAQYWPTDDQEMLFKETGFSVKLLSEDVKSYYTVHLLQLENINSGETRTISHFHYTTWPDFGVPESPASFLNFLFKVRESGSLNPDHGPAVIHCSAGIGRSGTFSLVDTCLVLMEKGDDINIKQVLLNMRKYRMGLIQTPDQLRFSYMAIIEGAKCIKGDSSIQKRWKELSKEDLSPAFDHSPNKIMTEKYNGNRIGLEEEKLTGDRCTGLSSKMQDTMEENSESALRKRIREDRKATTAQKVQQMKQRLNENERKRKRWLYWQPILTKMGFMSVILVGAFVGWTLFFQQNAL

[8] = target: Tyrosine-protein phosphatase non-receptor type 1 (Homo sapiens, UniProt P18031); test: Inhibition of recombinant human PTP1B expressed in Escherichia coli using p-nitrophenyl phosphate as substrate preincubated for 15 mins followed by substrate addition measured after 60 mins by absorbance based assay
Chain of Tyrosine-protein phosphatase non-receptor type 1 (P18031 whole entry): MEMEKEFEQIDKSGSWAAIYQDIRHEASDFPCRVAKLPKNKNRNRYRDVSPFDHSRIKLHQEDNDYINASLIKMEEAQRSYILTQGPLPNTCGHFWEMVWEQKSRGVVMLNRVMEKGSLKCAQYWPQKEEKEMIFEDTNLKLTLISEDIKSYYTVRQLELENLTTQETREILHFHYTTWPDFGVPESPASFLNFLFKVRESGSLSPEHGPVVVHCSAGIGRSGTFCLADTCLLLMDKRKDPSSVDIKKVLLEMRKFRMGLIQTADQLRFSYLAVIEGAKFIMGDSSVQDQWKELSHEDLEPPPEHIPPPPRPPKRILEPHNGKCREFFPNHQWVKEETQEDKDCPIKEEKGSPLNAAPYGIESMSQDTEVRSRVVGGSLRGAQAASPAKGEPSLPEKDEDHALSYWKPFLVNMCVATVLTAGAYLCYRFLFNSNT

MDA-MB-435 = test: Antiproliferative activity against human MDA-MB-435 cells assessed as inhibition of cell proliferation incubated for 24 hrs by MTT assay; format: functional, cell-based; details: MDA-MB-435, 24 h
Androgen receptor = Androgen receptor (Homo sapiens, UniProt P10275); test: Displacement of [3H]-DHT from recombinant androgen receptor (unknown origin) incubated for 3 hrs by liquid scintillation counter method
Chain of Androgen receptor (P10275 whole entry): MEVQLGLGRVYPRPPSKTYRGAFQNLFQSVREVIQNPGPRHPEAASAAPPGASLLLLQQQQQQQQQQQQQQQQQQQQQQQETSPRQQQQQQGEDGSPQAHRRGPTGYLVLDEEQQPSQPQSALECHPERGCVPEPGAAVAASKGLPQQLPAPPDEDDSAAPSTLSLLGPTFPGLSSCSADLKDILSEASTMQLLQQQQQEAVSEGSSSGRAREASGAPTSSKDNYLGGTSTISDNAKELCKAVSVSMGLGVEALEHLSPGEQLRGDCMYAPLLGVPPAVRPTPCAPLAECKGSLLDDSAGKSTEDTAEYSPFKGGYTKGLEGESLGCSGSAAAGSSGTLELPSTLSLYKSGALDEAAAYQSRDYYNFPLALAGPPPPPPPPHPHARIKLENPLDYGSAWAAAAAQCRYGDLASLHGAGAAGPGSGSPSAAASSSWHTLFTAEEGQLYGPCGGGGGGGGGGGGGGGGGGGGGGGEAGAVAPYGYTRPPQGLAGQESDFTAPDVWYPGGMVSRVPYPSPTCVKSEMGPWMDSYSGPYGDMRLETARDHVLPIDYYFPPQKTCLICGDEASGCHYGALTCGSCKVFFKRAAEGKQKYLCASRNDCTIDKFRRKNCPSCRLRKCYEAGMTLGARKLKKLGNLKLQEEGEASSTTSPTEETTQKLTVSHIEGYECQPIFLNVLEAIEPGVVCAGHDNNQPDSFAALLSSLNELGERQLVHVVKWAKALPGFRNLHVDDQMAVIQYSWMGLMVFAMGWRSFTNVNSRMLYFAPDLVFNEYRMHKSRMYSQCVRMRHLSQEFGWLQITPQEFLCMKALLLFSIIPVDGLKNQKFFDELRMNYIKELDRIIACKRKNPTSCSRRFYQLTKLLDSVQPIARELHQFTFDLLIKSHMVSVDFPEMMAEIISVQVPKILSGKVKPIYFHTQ

[9] = Cytotoxicity against human H7402 cells assessed as cell growth inhibition incubated for 24 hrs by MTT assay; format: functional, cell-based; details: H7402, 24 h

**Q.** Which results are given for `CN1C=C(C(N)=O)[C@@H]2C[C@H](O)[C@@](NC(=O)CS(N)(=O)=O)(C(=O)O)[C@@H]2C1`?
**A.** IC50 (L1210): 0.84 µM; IC50 [1]: 0.82 µM

**Q.** Which results are given for `CC1=C(Cn2c3ccc(Br)c(=O)c-3nc3ccccc32)CCC(C)(C)C1`?
**A.** MIC (Candida albicans): 0.95 µM; IC50 (HCT-116): 0.049 µM

**Q.** Which inhibition in vivo at 10 mg/kg/day (SW-620) does the source give for `C=C1C(=O)C=C2C=C3[C@@H](O)C(C)(C)C[C@@]3(O)[C@]12C` here?
**A.** Its inhibition in vivo at 10 mg/kg/day is 50%.

**Q.** With `C[C@@H]1C=CC(=O)[C@@]2(C)CC[C@@H]3[C@@H]4[C@@](C)(CC[C@@]4(C)CO)C[C@@]132` as the compound, how does the IC50 (HL-60) read?
**A.** The IC50 was 0.97 µM.

**Q.** And the IC50 (Bel-7402)?
**A.** The IC50 was 0.038 µM.

**Q.** Which IC50 [2] does the source give for `CC(C)[C@H]1CC[C@@]2(C)CC[C@]3(CO)CC4=C(C(=O)O)CC[C@H]4[C@]4(C)C[C@@H]4[C@H]3[C@H]12` here?
**A.** Its IC50 is 18 µM.

**Q.** With `COc1cc2nc(C(=O)NCC(=O)O)sc2c(C/C=C(\C)CC/C=C(\C)CC/C=C(\C)CCC/C(C)=C\CC(=O)O)c1O` as the compound, how does the IC50 (HCC1395) read?
**A.** The IC50 was 6.8 µM.

**Q.** And the IC50 (NSCLC)?
**A.** Its IC50 is 1.5 µM.

**Q.** And the IC50 (NCI-H1395)?
**A.** The IC50 was 2.5 µM.

**Q.** For `C=C(C)[C@H]1CC=C(C)[C@H]2C[C@H]3Cc4c(C)cc(O)cc4O[C@@]3(C)C[C@H]12`, which IC50 (MCF7) is on record?
**A.** Its IC50 is 20 µM.

**Q.** And the IC50 (SF-268)?
**A.** The IC50 was 20 µM.

**Q.** And the IC50 (HepG2)?
**A.** The IC50 was 20 µM.

**Q.** What about the IC50 (A549) of the same compound?
**A.** Its IC50 is 20 µM.

**Q.** What does the source list for `CC1=CC[C@H](C(C)(C)O)[C@H]2C[C@]3(C)Oc4cc(O)cc(C)c4C[C@@H]3C[C@H]12`?
**A.** IC50 (MCF7): 20 µM; IC50 (SF-268): 20 µM; IC50 (HepG2): 20 µM; IC50 (A549): 20 µM

**Q.** Which results are given for `C=C1CC[C@H]2C(C)(C)[C@@H](O)CC[C@]2(C)[C@H]1CC(=O)[C@]1(O)C=C(CSC[C@H](O)C(=O)OC)C(=O)C1`?
**A.** IC50 [3]: 1.8 µM; IC50 [4]: 3.2 µM; IC50 [5]: 4.6 µM; IC50 [6]: 10 µM

**Q.** For `CC1(C)Oc2c(nc3c4c2C(=O)CC[C@]4(C)[C@@]2(C)c4[nH]c5ccccc5c4C[C@@H]2C3)[C@H]1O`, which IC50 [7] is on record?
**A.** The IC50 was 1.7 µM.

**Q.** What about the IC50 [8] of the same compound?
**A.** Its IC50 is 1.7 µM.

**Q.** For `COC(=O)N[C@H]1[C@@H](C)O[C@@H](O[C@H]2C/C=C(\C)[C@]3(C)CC[C@@H]4[C@@H](O[C@H]5C[C@@H](O[C@H]6C[C@@H](O)[C@@H](O[C@@H]7C[C@@H](O)[C@@H](OC)[C@H](C)O7)[C@H](C)O6)C[C@H](C)O5)[C@@H](C)C[C@H](C)[C@H]4[C@]3(C)C(=O)C3C(=O)OC4(C[C@@H](C)C(CO)=C[C@H]4/C=C/2C)C3=O)C[C@]1(C)N` (stereo partly drawn), which IC50 (MDA-MB-435) is on record?
**A.** Its IC50 is 7.5 µM.

**Q.** For `C=C[C@@]1(C)CC[C@H]2C(C=C[C@H]3[C@H](CO)CC(=O)C[C@]23C)C1` (stereo partly drawn), which IC50 (Androgen receptor) is on record?
**A.** Its IC50 is 9.71 µM.

**Q.** Which IC50 [9] does the source give for `COC(=O)N[C@H]1[C@@H](C)O[C@@H](O[C@H]2C/C=C(\C)[C@]3(C)CC[C@@H]4[C@@H](O[C@H]5C[C@@H](O[C@H]6C[C@@H](O)[C@@H](O[C@@H]7C[C@@H](O)[C@@H](OC)[C@H](C)O7)[C@H](C)O6)C[C@H](C)O5)[C@@H](C)C[C@H](C)[C@H]4[C@]3(C)C(=O)C3C(=O)OC4(C[C@@H](C)C(CO)=C[C@H]4/C=C/2C)C3=O)C[C@]1(C)[N+](=O)[O-]` (stereo partly drawn) here?
**A.** Its IC50 is 0.6 µM.
